Molecular target: 3R Shaker K channel (Drosophila melanogaster, UniProt P08510, A359R/M356R)
Experiment: physchem
Assay type: cell-based
Details: 100 μM; for compound-induced G(V) shift (mean±SEM) / G(V) shift: pH 7.4, Xenopus oocytes; for ΔG(V) of representative G(V) curves (single examples): pH 7.4, same cells as representative traces; for relative current amplitude: representative traces at voltage giving 10% of maximum conductance in control; for relative current amplitude / effect on G(V) shift / current compared with DHAA / increase in G(V) shift relative to DHAA (ΔVc7, ΔVhalo, ΔVtot): pH 7.4; for effect on G(V) shift / current compared with DHAA: C7-modified DHAA; for G(V) shift: Table 1
Source text: A 3R Shaker K channel is a modified Shaker K channel where residues 356 and 359 are mutated to arginines.
All animal experiments were approved by the local Animal Care and Use Committee and followed international guidelines. A modified Shaker H4 channel^30, with removed N-type inactivation (ShH4IR)^31, here called the wild type (WT) channel, was expressed in oocytes. In addition, a modified 3R Shaker K channel where two introduced positive charged arginines (M356R and A359R) in addition to one native arginine (R362) makes the channel more sensitive to DHA^16, was expressed in oocytes and in a CHO—K1 stable cell line.
African clawed frogs (Xenopus laevis) were anesthetized with 1.4 g/L ethyl 3-aminobenzoate methanesulfonate salt (tricaine). After an incision through the abdomen a batch of oocytes were removed. Clusters of oocytes were separated by incubation for ˜1 h in a Ca-free O—R2 solution (in mM: 82.5 NaCl, 2 KCl, 5 HEPES, and 1 MgCl2; pH adjusted to 7.4 by NaOH) containing Liberase Blendzyme. The oocytes were then incubated at 8° C. in a modified Barth's solution (MBS; in mM: 88 NaCl, 1 KCl, 2.4 NaHCO3, 15 HEPES, 0.33 Ca(NO3)2, 0.41 CaCl2, and 0.82 MgSO4; pH adjusted to 7.6 by NaOH) supplemented with penicillin (25 U/ml), streptomycin (25 μg/ml), and sodium pyruvate (2.5 mM) 2-24 hours before injection. Fifty nl of cRNA (50 pg) were injected into each oocyte using a Nanoject injector (Drummond Scientific, Broomall, Pa.). Injected oocytes were kept at 8° C. in MBS until one day before electrophysiological recordings, when they were incubated at 16° C. All chemicals were supplied from Sigma-Aldrich (Stockholm, Sweden) if not stated otherwise.
All manual electrophysiological recordings were performed at room temperature (20-23° C.), using a GeneClamp 500B amplifier (for oocytes) or a Axopatch 200B amplifier (for manual patch clamp of CHO—K1 cells and DRG neurons) and a Digidata 1440A digitizer and pClamp 10 software (all from Molecular Devices, Inc., Sunnyvale, Calif., USA). Compounds were dissolved to 100 mM in 99.5% EtOH and stored at −20° C. Compounds were diluted in extracellular solution to the desired test concentration.
The oocyte was placed in a bath surrounded by 1K extracellular solution that contained (in mM): 88 NaCl, 1 KCl, 15 HEPES, 0.4 CaCl2, and 0.8 MgCl2, pH adjusted to 7.4 by NaOH (reaching a sodium concentration of ˜100 mM). Control solution was added to the bath with a gravity driven perfusion system. Compound solution was added to the bath manually with a syringe. Two glass microelectrodes were inserted into the oocyte using micromanipulators. […] All channels were closed when the potential was clamped to −80 mV and this voltage was set as the holding potential. Currents were evoked from the holding potential of −80 mV by 100-ms long, 5-mV steps ranging from −80 up to +50 mV (WT) and +70 mV (3R).
Conductance GK(V) was calculated as GK(V)=[…], (Eq. 1) where IK is the average current from the steady-state phase at the end of each 100-ms pulse, V is the membrane voltage, and Vrev is the reversal potential for K^+, (set to −80 mV for the oocytes, and calculated to be −89 mV for the CHO—K1 cells).
G(V)=A/(1+exp((V1/2−V)/s))^n (Eq. 2) where A is amplitude of the curve, V is the absolute membrane voltage, V1/2 is the midpoint, s is the slope and n is an exponent set to 4^17. The compound-induced G(V) shift was determined at the 10% level of the maximum conductance in control solution^17. The compound-induced G(V) shift in CHO—K1 was quantified by subtracting the control V1/2 from the compound V1/2 when n was set to 1.
Data for concentration and pH dependent G(V) shifts (ΔV) in oocytes were fit with a dose-response equation ΔV=ΔVmax/(1+c1/2/c), (Eq. 3) where Δvmax is the maximal shift, c1/2 is half maximal effective concentration/pKa value and c is the concentration.

3R Shaker K channel, sequence (P08510 whole entry M356R/A359R): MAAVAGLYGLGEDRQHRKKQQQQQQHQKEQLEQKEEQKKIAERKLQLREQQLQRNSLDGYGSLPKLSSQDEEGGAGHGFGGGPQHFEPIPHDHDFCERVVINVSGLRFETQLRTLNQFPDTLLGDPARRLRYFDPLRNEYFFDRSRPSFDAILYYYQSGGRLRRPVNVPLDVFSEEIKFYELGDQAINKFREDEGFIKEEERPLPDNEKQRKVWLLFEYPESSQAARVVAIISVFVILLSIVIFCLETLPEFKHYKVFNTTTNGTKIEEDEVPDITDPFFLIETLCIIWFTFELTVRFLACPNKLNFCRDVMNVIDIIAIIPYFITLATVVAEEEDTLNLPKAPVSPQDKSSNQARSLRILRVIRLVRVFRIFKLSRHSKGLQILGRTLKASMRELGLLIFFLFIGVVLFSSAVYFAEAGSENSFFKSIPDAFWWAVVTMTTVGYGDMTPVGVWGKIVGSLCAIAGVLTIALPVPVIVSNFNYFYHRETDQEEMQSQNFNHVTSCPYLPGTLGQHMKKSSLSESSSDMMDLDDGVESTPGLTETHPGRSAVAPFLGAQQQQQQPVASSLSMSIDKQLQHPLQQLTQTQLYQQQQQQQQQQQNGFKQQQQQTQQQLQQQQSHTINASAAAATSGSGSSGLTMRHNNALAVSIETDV

SMILES	G(V) shift [mV]	also measured
CC(C)C1=CC2=CC[C@@H]3[C@](C)(CCC[C@@]3(C)C(=O)O)[C@H]2CC1 [AA, abietic acid]		compound-induced G(V) shift (mean±SEM): −11.2±2 mV; ΔG(V) of representative G(V) curves (single examples): −8.1 mV; relative current amplitude: 2.2 times
CC(C)c1ccc2c(c1)C(=NOCc1ccccc1)CC1C(C)(C(=O)O)CCCC21C (centres unmarked) [Compound K9]	−9.5	effect on G(V) shift / current compared with DHAA: no significantly different effects compared to DHAA
CC(C)c1ccc2c(c1)C(=NOCCCc1ccccc1)CC1C(C)(C(=O)O)CCCC21C (centres unmarked) [Compound K10]	−3.0	effect on G(V) shift / current compared with DHAA: decreased potency compared to DHAA
CC(C)c1ccc2c(c1Cl)CCC1[C@](C)(C(=O)O)CCC[C@]21C (stereo partly drawn) [Wu14, (1R,4aS)-8-chloro-7-isopropyl-1,4a-dimethyl-1,2,3,4,4a,9,10,10a-octahydrophenanthrene-1-carboxylic acid]	−17.5	
CC(C)c1ccc2c(c1Cl)C(=O)CC1[C@](C)(C(=O)O)CCC[C@]21C (some centres unmarked) [Wu15]	−4.9	
CO/N=C1\CC2[C@](C)(C(=O)O)CCC[C@]2(C)c2ccc(C(C)C)c(Cl)c21 (stereo partly drawn) [Wu16, (1R,4aS,E)-8-chloro-7-isopropyl-9-methoxyimino-1,4a-dimethyl-1,2,3,4,4a,9,10,10a-octahydrophenanthrene-1-carboxylic acid]	−17.2	
CC(C)c1ccc2c(c1Cl)C(=NO)CC1C(C)(C(=O)O)CCCC21C (centres unmarked) [Wu17]	−5.3	
CC(C)c1ccc2c(c1Cl)C(=NOCc1ccccc1)CC1C(C)(C(=O)O)CCCC21C (centres unmarked) [Wu18]	−1.3	
C=CCO/N=C1\CC2[C@](C)(C(=O)O)CCC[C@]2(C)c2ccc(C(C)C)c(Cl)c21 (stereo partly drawn) [Wu19, (1R,4aS,E)-9-((allyloxy)imino)-8-chloro-7-isopropyl-1,4a-dimethyl-1,2,3,4,4a,9,10,10a-octahydrophenanthrene-1-carboxylic acid]	−16.1	
CC(C)c1cc2c(cc1Cl)[C@@]1(C)CCC[C@@](C)(C(=O)O)C1CC2=O (stereo partly drawn) [Wu20, (1R,4aS,E)-6-chloro-7-isopropyl-9-oxo-1,4a-dimethyl-1,2,3,4,4a,9,10,10a-octahydrophenanthrene-1-carboxylic acid]	−13.9	
CC(C)c1cc2c(cc1Cl)[C@@]1(C)CCC[C@@](C)(C(=O)O)C1C/C2=N\O (stereo partly drawn) [Wu21, (1R,4aS,E)-6-chloro-7-isopropyl-9-hydroxyimino-1,4a-dimethyl-1,2,3,4,4a,9,10,10a-octahydrophenanthrene-1-carboxylic acid]	−13.8	
CC(C)c1cc2c(cc1Cl)C1(C)CCCC(C)(C(=O)O)C1CC2=NOCc1ccccc1 (centres unmarked) [Wu22]	−9.1	
CC(C)c1cc2c(cc1Br)[C@@]1(C)CCC[C@@](C)(C(=O)O)C1CC2 (stereo partly drawn) [Wu24, (1R,4aS,E)-6-bromo-7-isopropyl-1,4a-dimethyl-1,2,3,4,4a,9,10,10a-octahydrophenanthrene-1-carboxylic acid]	−12.5	increase in G(V) shift relative to DHAA (ΔVc7, ΔVhalo, ΔVtot): −0.3 mV; compound-induced G(V) shift (mean±SEM): −12.4 mV
CC(C)c1c(Cl)cc2c(c1Cl)CC[C@H]1[C@](C)(C(=O)O)CCC[C@]21C [Wu27]	−5.9	compound-induced G(V) shift (mean±SEM): −5.9±0.4 mV; ΔG(V) of representative G(V) curves (single examples): −6.1 mV
CC(C)c1cc2c(cc1Br)[C@@]1(C)CCC[C@@](C)(C(=O)O)C1C/C2=N\O (stereo partly drawn) [Wu28, (1R,4aS,E)-6-bromo-9-(hydroxyimino)-7-isopropyl-1,4a-dimethyl-1,2,3,4,4a,9,10,10a-octahydrophenanthrene-1-carboxylic acid]	−12.4	
CC(C)c1cc2c(cc1Br)C1(C)CCCC(C)(C(=O)O)C1CC2=O (centres unmarked) [Wu30]	−7.0	
CC(C)c1ccc2c(c1)C(=NO)CC1C(C)(C(=O)O)CCCC21C (centres unmarked) [Wu31]	−3.0	effect on G(V) shift / current compared with DHAA: clearly reduced the current increase
C=CCO/N=C1\CC2[C@](C)(C(=O)O)CCC[C@]2(C)c2cc(Br)c(C(C)C)cc21 (stereo partly drawn) [Wu33, (1R,4aS,E)-6-bromo-9-((allyloxy)imino)-7-isopropyl-1,4a-dimethyl-1,2,3,4,4a,9,10,10a-octahydrophenanthrene-1-carboxylic acid]	−24.5	

SMILES	G(V) shift [mV]	also measured
CC(C)c1cc2c(cc1Br)C1(C)CCCC(C)(C(=O)O)C1CC2=NOCc1ccccc1 (centres unmarked) [Wu34]	−6.6	
CON=C1C[C@H]2[C@](C)(C(=O)O)CCC[C@]2(C)c2ccc(C(C)C)cc21 [Wu36]	−14.8	increase in G(V) shift relative to DHAA (ΔVc7, ΔVhalo, ΔVtot): −2.7 mV; compound-induced G(V) shift (mean±SEM): −14.8 mV; effect on G(V) shift / current compared with DHAA: no significantly different effects compared to DHAA; relative current amplitude: 4.4 times
CC(C)c1c(Cl)cc2c(c1Cl)C(=O)CC1C(C)(C(=O)O)CCCC21C (centres unmarked) [Wu37]	−11.1	
COC1CC2[C@](C)(C(=O)O)CCC[C@]2(C)c2ccc(C(C)C)cc21 (some centres unmarked) [Wu39]	−7.3	effect on G(V) shift / current compared with DHAA: clearly reduced the current increase; relative current amplitude: 2.6 times
C=CCON=C1CC2C(C)(C(=O)O)CCCC2(C)c2cc(Cl)c(C(C)C)c(Cl)c21 (centres unmarked) [Wu40]	−13.4	
CON=C1C[C@H]2[C@](C)(C(=O)O)CCC[C@]2(C)c2cc(Cl)c(C(C)C)c(Cl)c21 [Wu41, (1R,4aS,10aR)-6,8-dichloro-7-isopropyl-9-(methoxyimino)-1,4a-dimethyl-1,2,3,4,4a,9,10,10a-octahydrophenanthrene-1-carboxylic acid]	−22.1	
CC(C)c1c(Cl)cc2c(c1Cl)C(=NO)CC1C(C)(C(=O)O)CCCC21C (centres unmarked) [Wu42]	−6.1	
CC(C)c1c(Cl)cc2c(c1Cl)C(=NOCc1ccccc1)CC1C(C)(C(=O)O)CCCC21C (centres unmarked) [Wu43]	−4.2	
CC(C)c1c(Cl)c(Cl)c2c(c1Cl)CCC1C(C)(C(=O)O)CCCC21C (centres unmarked) [Wu45]	−3.9	
CC(C)c1c(Cl)c(Cl)c2c(c1Cl)C(=O)CC1[C@](C)(C(=O)O)CCC[C@]21C (some centres unmarked) [Wu46]	−2.5	
CON=C1CC2C(C)(C(=O)O)CCCC2(C)c2c(Cl)c(Cl)c(C(C)C)c(Cl)c21 (centres unmarked) [Wu47]	−13.4	
CC(C)c1c(Cl)c(Cl)c2c(c1Cl)C(=NO)CC1C(C)(C(=O)O)CCCC21C (centres unmarked) [Wu48]	4.7	
C=CCON=C1CC2C(C)(C(=O)O)CCCC2(C)c2c(Cl)c(Cl)c(C(C)C)c(Cl)c21 (centres unmarked) [Wu49]	−7.3	
CC(C)c1c(Cl)c(Cl)c2c(c1Cl)C(=NOCc1ccccc1)CC1C(C)(C(=O)O)CCCC21C (centres unmarked) [Wu51]	−1.9	
C=CCO/N=C1\CC2[C@](C)(C(=O)O)CCC[C@]2(C)c2cc(F)c(C(C)C)cc21 (stereo partly drawn) [Wu52, (1R,4aS,E)-9-((allyloxy)imino)-6-fluoro-7-isopropyl-1,4a-dimethyl-1,2,3,4,4a,9,10,10a-octahydrophenanthrene-1-carboxylic acid]	−20.2	
C=CCON=C1CC2C(C)(C(=O)O)CCCC2(C)c2ccc(C(C)C)c(F)c21 (centres unmarked) [Wu53]	−9.2	
CON=C1CC2C(C)(C(=O)O)CCCC2(C)c2ccc(C(C)C)c(F)c21 (centres unmarked) [Wu54]	−9.0	
